Structures are written as SMILES. Activity calls are given as the source filed them. A value given as a limit tells only on which side of the number the result lay.

Test [1] in a line: viability of PTEN-deleted HCT116 cells – cell-based, HCT116 PTEN knockout, dose response (AID 1047).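 Also: HCT116 colon tumor cells with PTEN knocked out; cells exposed to compound for 60 hours before readout; potency for loss of cell viability measured by luminescence.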 In kind it is functional.
In test [2] the target is DNA (cytosine-5)-methyltransferase 1 (Homo sapiens, UniProt P26358). Briefly: inhibition of DNA methylation by DNMT1 – biochemical, fluorescent molecular beacon, confirmation (AID 602386). In kind it is functional.
DNA (cytosine-5)-methyltransferase 1, sequence (P26358 whole entry): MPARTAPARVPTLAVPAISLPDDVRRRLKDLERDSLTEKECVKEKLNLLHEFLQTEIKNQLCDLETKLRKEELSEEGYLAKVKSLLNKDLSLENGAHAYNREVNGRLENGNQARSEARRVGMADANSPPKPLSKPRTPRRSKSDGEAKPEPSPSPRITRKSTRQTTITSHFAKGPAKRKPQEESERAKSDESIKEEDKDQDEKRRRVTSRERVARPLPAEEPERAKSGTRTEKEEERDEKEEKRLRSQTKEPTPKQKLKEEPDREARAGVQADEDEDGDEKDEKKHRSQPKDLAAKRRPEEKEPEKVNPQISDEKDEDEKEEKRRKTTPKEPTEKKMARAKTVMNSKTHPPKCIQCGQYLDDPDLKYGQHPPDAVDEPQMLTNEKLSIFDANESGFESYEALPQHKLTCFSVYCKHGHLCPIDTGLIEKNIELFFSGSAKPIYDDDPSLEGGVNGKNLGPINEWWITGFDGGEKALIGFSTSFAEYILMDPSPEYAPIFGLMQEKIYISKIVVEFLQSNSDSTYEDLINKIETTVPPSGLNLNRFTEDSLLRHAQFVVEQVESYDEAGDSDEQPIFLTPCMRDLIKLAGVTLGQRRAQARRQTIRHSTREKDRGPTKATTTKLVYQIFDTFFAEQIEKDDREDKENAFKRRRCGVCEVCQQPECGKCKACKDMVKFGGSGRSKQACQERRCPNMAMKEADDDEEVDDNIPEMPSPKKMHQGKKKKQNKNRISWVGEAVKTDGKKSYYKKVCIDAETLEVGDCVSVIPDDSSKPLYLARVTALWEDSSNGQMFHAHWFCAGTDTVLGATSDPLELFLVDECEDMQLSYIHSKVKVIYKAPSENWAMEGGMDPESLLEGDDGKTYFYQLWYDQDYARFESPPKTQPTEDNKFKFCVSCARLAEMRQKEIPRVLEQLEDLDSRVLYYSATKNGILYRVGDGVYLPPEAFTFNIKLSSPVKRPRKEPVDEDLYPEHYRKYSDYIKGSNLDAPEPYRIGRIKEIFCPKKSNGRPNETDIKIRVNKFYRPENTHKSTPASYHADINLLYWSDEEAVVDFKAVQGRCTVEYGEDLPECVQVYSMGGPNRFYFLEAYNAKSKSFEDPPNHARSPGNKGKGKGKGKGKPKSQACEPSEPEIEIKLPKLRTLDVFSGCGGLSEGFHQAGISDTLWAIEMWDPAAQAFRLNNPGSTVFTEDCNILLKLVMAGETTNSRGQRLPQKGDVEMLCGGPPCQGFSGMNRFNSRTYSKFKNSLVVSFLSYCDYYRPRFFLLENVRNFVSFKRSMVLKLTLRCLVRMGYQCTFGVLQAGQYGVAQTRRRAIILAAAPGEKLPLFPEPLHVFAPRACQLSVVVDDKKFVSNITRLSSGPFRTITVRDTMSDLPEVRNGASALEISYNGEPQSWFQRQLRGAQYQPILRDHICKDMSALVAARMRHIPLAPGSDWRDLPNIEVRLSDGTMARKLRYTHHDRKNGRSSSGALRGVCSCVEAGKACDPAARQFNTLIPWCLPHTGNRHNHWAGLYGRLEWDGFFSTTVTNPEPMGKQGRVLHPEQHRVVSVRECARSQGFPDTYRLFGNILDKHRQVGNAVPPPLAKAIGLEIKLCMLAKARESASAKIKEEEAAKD
A further test has as its target Nonstructural protein 1 (Influenza A virus, UniProt Q194T2). In kind it is functional, Influenza A virus (A/California/07/2009(H1N1)).
Test [3] in a line: Counterscreen for activators of the function of SWI/SNF related, matrix associated, actin dependent regulator of chromatin, subfamily a, member 2 (SMARCA2, BRM): Luminescence-based cell-based high throughput dose response assay to identify non-selective compounds using the VP16 reporter assay. In kind it is functional.
Test [4] in a line: viability of HCT116 lacking mutant beta-catenin – cell-based, human colon tumor, dose response (AID 1045).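 Also: HCT116 colon tumor cells with beta catenin knocked out; cells exposed to compound for 60 hours.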 In kind it is functional.
The nature of test [5]: NIH3T3 cell viability loss – ATP luminescence, mouse fibroblasts, counter-screen, dose response (AID 2010).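 Also: cells exposed to compound for about 90 hours before reading.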 In kind it is functional, cell-based. A general note: A counterscreen serves to expose hits that act by an unwanted route or on another target.
Test [6] concerns the target SWI/SNF-related matrix-associated actin-dependent regulator of chromatin subfamily A member 2 (Homo sapiens, UniProt P51531). In words: Luminescence-based cell-based high throughput dose response assay to identify activators of the function of SWI/SNF related, matrix associated, actin dependent regulator of chromatin, subfamily a, member 2 (SMARCA2, BRM). In kind it is functional.

The target in test [7] is T1, DNA repair and recombination protein RAD54-like (Homo sapiens, UniProt Q92698).
T1 sequence (Q92698 whole entry): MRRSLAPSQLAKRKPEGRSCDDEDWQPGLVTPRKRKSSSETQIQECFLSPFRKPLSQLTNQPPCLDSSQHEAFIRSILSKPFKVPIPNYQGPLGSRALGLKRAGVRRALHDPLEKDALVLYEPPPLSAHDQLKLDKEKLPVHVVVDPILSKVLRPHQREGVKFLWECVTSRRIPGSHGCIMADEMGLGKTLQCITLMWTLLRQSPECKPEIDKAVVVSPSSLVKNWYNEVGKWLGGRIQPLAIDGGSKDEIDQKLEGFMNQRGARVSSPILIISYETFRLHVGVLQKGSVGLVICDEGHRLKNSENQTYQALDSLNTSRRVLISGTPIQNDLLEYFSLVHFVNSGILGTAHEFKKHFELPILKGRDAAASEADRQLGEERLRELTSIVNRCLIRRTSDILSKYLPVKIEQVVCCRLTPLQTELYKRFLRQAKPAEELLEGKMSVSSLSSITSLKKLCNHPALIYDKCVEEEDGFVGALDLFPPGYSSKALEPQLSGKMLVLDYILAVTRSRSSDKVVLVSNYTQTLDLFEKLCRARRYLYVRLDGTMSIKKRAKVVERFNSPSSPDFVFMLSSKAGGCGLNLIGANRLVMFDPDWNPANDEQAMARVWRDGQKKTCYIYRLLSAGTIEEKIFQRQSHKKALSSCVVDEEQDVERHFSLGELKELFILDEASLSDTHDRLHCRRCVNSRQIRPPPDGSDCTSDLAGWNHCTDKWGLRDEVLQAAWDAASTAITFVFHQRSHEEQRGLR
In words: RAD54 Holliday junction migration blockers – biochemical, fluorescence, cherry-picked samples, dose series, confirmation (AID 651657). In kind it is functional.

Test [8] is described as follows: Trypanosoma cruzi growth suppression in host cells – NIH3T3 host cells, beta-gal luminescence, confirmation (AID 2044).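 Also: intracellular parasites grown in NIH/3T3 mouse fibroblasts as host cells; luminescent beta-galactosidase reporter signal from transgenic T. cruzi replicating inside host cells; inhibitors lower the luminescence signal.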 In kind it is functional, cell-based.
Test [9] is described as follows: acridine orange displacement from DNA – biochemical, fluorescence polarization, cherry-pick, artefact control for RAD54 inhibitor project, dose response (AID 651673). In kind it is functional. Background: In fluorescence polarisation assays a small probe gives low polarisation when free and higher when bound to something large.
The target of test [10] is T2, Sentrin-specific protease 1 (Homo sapiens, UniProt Q9P0U3). In words: SENP1 catalytic domain blockers, concentration series – biochemical, kinetic FRET, dose response (AID 651697). In kind it is functional. The following applies: read-out: IC50_Mean.
T2 sequence (Q9P0U3 whole entry, the tested form may be a part): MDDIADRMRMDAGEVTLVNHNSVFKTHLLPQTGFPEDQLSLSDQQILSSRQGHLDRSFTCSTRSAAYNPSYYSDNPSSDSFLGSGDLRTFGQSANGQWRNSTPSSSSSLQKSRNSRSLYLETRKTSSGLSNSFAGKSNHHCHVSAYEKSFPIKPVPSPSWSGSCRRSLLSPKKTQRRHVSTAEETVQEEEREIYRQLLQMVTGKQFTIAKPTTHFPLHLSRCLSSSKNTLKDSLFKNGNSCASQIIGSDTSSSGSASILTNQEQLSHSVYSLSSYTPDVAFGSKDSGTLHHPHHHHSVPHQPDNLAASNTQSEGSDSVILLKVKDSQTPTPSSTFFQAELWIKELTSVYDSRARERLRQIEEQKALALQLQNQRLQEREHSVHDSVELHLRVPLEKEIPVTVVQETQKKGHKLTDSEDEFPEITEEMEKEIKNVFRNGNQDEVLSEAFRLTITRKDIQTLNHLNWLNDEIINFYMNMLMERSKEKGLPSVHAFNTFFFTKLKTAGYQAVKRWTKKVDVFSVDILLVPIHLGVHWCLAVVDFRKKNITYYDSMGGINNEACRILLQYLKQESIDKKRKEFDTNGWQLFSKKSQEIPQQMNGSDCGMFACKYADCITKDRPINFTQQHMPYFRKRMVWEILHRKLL
In test [11] the target is T2, Sentrin-specific protease 1. In words: Dose response confirmation of small molecule inhibitors of the catalytic domain of the SUMO protease, SENP1 in a FRET assay. In kind it is functional. The following applies: read-out: IC50_Mean.

Nonstructural protein 1, sequence (Q194T2 whole entry): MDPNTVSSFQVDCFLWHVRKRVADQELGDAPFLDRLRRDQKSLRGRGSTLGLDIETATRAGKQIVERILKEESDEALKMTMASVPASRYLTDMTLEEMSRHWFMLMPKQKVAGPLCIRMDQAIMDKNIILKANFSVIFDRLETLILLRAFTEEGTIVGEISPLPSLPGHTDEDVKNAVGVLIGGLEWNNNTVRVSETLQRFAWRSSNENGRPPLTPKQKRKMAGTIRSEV
SWI/SNF-related matrix-associated actin-dependent regulator of chromatin subfamily A member 2, sequence (P51531 whole entry): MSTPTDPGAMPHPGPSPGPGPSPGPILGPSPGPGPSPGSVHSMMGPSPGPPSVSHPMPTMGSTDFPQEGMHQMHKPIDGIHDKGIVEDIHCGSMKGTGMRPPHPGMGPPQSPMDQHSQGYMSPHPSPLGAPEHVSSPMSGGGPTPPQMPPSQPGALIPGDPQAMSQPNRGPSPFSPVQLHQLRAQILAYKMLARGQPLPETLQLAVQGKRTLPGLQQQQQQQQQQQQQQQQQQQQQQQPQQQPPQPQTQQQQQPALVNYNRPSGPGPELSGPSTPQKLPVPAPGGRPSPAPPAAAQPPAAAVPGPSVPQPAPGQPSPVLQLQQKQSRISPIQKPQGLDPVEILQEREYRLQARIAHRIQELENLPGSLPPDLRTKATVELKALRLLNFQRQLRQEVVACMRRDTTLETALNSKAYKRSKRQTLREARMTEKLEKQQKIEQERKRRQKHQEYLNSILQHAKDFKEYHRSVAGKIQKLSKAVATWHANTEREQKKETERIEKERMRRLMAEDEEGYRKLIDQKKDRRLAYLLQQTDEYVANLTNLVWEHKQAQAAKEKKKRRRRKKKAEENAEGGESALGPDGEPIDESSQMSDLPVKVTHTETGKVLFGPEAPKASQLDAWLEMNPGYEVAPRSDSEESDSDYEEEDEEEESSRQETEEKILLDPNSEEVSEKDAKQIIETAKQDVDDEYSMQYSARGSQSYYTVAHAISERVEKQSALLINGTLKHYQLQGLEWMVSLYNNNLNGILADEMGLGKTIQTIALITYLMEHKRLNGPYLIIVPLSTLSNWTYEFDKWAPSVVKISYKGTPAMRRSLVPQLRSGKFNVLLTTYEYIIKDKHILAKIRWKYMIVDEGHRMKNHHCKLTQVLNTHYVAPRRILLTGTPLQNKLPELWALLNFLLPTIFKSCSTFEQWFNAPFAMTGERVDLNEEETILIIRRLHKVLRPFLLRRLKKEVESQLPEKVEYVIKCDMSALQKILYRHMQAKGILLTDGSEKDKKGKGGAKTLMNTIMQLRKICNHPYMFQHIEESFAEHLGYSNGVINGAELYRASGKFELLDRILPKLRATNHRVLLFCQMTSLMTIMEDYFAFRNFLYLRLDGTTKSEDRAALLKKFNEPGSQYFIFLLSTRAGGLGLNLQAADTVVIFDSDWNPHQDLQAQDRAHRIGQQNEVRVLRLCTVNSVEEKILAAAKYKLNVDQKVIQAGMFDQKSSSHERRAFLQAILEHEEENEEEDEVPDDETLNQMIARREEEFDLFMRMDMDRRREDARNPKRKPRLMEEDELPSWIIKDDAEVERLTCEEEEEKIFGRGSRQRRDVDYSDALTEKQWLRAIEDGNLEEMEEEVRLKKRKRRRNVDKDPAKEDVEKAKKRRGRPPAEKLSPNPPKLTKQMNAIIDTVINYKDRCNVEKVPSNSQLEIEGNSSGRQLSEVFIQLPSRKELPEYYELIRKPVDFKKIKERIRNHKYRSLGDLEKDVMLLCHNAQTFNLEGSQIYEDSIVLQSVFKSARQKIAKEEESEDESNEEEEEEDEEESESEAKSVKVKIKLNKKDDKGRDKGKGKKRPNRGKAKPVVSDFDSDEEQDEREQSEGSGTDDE

For orientation: EC50 means the concentration needed to bring the measured effect to its halfway point. Usually AC50 stands for the midpoint of the concentration-response curve, whichever way the signal moves. For the compound `CCN(CC)CCNc1nc2cc(OC)c(OC)cc2c2nc(-c3ccccc3)nn12`, the EC50 was 4.9 µM (active) in [1]; > 91.2 µM (inactive) in test [3]; 3.48 µM (active) in test [4]; > 30 µM (not active) in [5]; > 91.2 µM (inactive) in [6]; 0.678 µM (active) in test [8]. Also, the IC50 in [2] is > 99 µM (inactive); on Nonstructural protein 1, > 100 µM (active). The AC50 is 1.92 µM (active) in test [7] and 51.8 µM (active) in [9].

Regarding `Cc1cc(C)c(Cn2c(C(=O)O)c(C=O)c3ccccc32)c(C)c1`, the figures for the IC50 in [10] and in test [11] were 16.9 µM (active) and 20.8 µM (inactive), respectively.
